Laboratory results reported in patent US6825236B2, “Colchicine derivatives” (California Pacific Medical Center, priority 2003, dated 2004).

Assays:
[1] = system: HCT116; assay: Cell colony formation assay; type: cell-based; conditions: 72 hours with drug, colonies counted after 7 days
Experimental: This example provides directions for growing cells and testing compounds of the invention for their effect on the growth of the cells. All cells were purchased from DCTDC Tumor Repository, NCI, NIH.
Cell Colony Formation Assay
Four hundred cells (HCT 116, PC-3) or five hundred cells (VM46) were plated in 60 mm Petri dishes containing 2.7 ml of medium (modified McCoy's 5a medium) containing 10% fetal bovine serum and 100 units/ml penicillin and […] streptomycin. The cells were incubated in a CO2 incubator at 37° C. for 5 hours for attachment to the bottom of Petri dishes. Drugs were made fresh in medium at ten times the final concentration, and then 0.3 ml of this stock solution was added to the 2.7 ml of medium in the dish. The cells were then incubated with drugs for 72 hours at 37° C. At the end of the incubation the drug-containing media were decanted, the dishes were rinsed with 4 ml of Hank's Balance Salt Solution (HBSS), 5 ml of fresh medium was added, and the dishes were returned to the incubator for colony formation. The cell colonies were counted using colony counter after incubation for 7 days for HCT116 cells and PC-3 cells and 8 days for VM46 cells, respectively.
Values of ID50 (the drug concentration producing 50% inhibition of colony formation) may be determined for each tested compound. The directions described in this example may be used in other cells, such as DU-145.

[2] = system: MTG-B mouse mammary adenocarcinoma; assay: In vivo efficacy in mice bearing MTG-B tumors; parameters: species or system C3H/HeJ mice; conditions: for Surviving days after treatment of MTG-B mouse mammary adenocarcinoma in C3H/Hcj mice: i.p., days from day 0, survival time of control mice generally 6 days; for T/C %: surviving days of treated mice / surviving days of control mice x 100%
Experimental: This example provides directions for performing in vivo efficacy tests of the compounds of the invention on C3H/HeJ mice bearing MTG-B tumors.
Studies on the compounds of this invention are performed on C3H/HeJ mice bearing MTG-B tumors. The tumors grow exponentially following implantation into the flanks of the mice and reached a diameter of 8 mm (268.08 mm^3) by day 7 to 10. Treatment is initiated at that time, with the first day of treatment designated as day 0 for calculation and plots. The mice are injected i.p. with three drug dose levels (⅓, ½, 1 5 MTD) using both a single injection and the schedule of Q2D 5 3 (every 2 days for a total of 3 treatments at ⅓ MTD). Control groups of mice bearing 8 mm diameter tumors are treated with vehicle alone. After drug treatment, the mice are observed twice a day. When a tumor reaches 1.5 g, the mouse bearing the tumor wis euthanized. Surviving days measured from day 0 for mice treated with anticancer drugs (T) and surviving days measured from day 0 for control mice (C) are recorded. Tumor growth inhibition values (T/C %) are calculated using the formula T/C %=(surviving days of mice treated with an anticancer drug T/surviving days of control mice C) 5 100%.
Tumor sizes may be measured by caliper every day. Daily measurement (mm) of solid tumor (length L and width W) in two dimensions is used to calculate the tumor weight [tumor weight=(length 5 width^2)/2] based on the interchangeable value of 1 mm^3=1 mg. Tumor growth delay (T−C value) is determined by calculation of the median time (in days) required for the treatment group and control group tumors to reach 1,000 mg. Tumor doubling time (Td) is measured, and tumor cell kill is calculated by the formula of log cell kill=(T−C value)/(3.32 5 Td). Regression effects after treatment may be observed and recorded (a complete regression: a regression below limit of palpation; a partial regression: a regression of more than 50% reduction in tumor mass).
Generally, the survival time of the control mice is six (6) days. A ratio of the extra days of survival of mice treated with the compounds of the invention (compared to control) to the extra days of survival of mice treated with taxol (compared to control), can be calculated. For example, if the mice survived 18 days as compared to 9 days for taxol-treated mice, the CD/Taxol ratio would be 18−6/9−6=12/3=4 or 400%.
The following Table II provides a summary of the in vivo toxicity and iv vivo efficacy tests described in Examples 41 and 42 for the compounds tested.

[3] = system: C3H/HeJ mice; assay: In vivo toxicity (MTD / nontoxicity dose), intraperitoneal injection; conditions: highest dose causing no severe irreversible toxicity
Experimental: This example provides directions for performing in vivo toxicity tests of the compounds of the invention on C3H/HeJ mice.
Acute toxicities of the compounds of this invention are evaluated on C3H/HeJ mice (body weight 18-22 g). The MTD40 (maximum tolerated dose at day 40) values are determined by the standard procedure described by Gad and Chengelis (see, for example, “Acute Toxicology Testing,” 2nd Ed., Shayne O. Gad and Christopher P. Chengelis, pp. 186-195 (Academic Press).) In the consecutive type studies, 2 mice are dosed at low and moderate doses of 40 and 100 mg/kg. If no severe and irreversible toxicity (euthanasia is required) occurs at these doses, a new pair of animals is initiated at 180 mg/kg, which is 1.8 times higher than 100 mg/kg. Sequential dosages (about 3 doses on 3 pairs of animals, i.e. 2 mice for each drug dose) are increased by a factor of 1.8 until severe and irreversible toxicity (euthanasia is required) occurred. Then another pair of animals is initiated at the highest nonlethal dosage, and successive dosages were increased by a factor of 1.15. The result of this exercise is two dosages, one apparently nonlethal and the other lethal if severe and irreversible toxicity occurs and euthanasia is required, separated by a factor of 1.15. Six mice are dosed at each dosage. If no severe and irreversible toxicity occurs at the lower dosage and at least one with severe and irreversible toxicity occurs at the higher dose, then the lower dose is considered to be the MTD. The compounds of this invention are administered to C3H/HeJ mice by intraperitoneal injection (IP). Drug toxicity is evaluated on mice checked daily for 45 days. The toxicity parameters reported will be the MTD40.

Row | Compound | Survival (%) of HCT116 ([1]; 1 nM) | Survival (%) of HCT116 ([1]; 10 nM) | Survival (%) of HCT116 ([1]; 100 nM) | Surviving days after treatment of MTG-B mouse mammary adenocarcinoma in C3H/Hcj mice [2] | T/C % [2] | In Vivo Toxicity Nontoxicity Dose (ip. mg/kg) in C3H/Hej mice [3]
1 | COc1cc2c(c(OC)c1OC)-c1ccc(OC)c(=O)cc1C(NC(C)=O)CC2 (stereo not shown) [Colchicine] | 100% | 76.1% | 0% | 9 days | 150% | 1.6 (0.5) mg/kg
2 | COc1cc2c(c(OC)c1OC)-c1ccc(SC)c(=O)cc1C(NC(=O)COc1ccc(F)cc1)CC2 (stereo not shown) [Compound 000811, N-Deacetyl-N-(4-fluorophenoxyacetyl)thiocolchicine] |  | 50.4% | 0% |  |  | 150 mg/kg
3 | COc1cc2c(c(OC)c1OC)-c1ccc(SC)c(=O)cc1C(NC(=O)COc1ccc(Cl)cc1)CC2 (stereo not shown) [Compound 000814, N-Deacetyl-N-(4-chlorophenoxyacetyl)thiocolchicine] |  | 87.7% | 0% |  |  | 100 mg/kg
4 | COc1cc2c(c(OC)c1OC)-c1ccc(SC)c(=O)cc1C(NC(=O)COc1ccc(Br)cc1)CC2 (stereo not shown) [Compound 000815, N-Deacetyl-N-(4-bromophenoxyacetyl)thiocoichicine] |  | 93.8% | 0% | 9 days | 150% | 100 (100) mg/kg
5 | COc1cc2c(c(OC)c1OC)-c1ccc(SC)c(=O)cc1C(NC(=O)COc1ccc(I)cc1)CC2 (stereo not shown) [Compound 000816, N-Deacetyl-N-(4-iodophenoxyacetyl)thiocolchicine] |  | 100% | 0% |  |  | 100 mg/kg
6 | COc1cc2c(c(OC)c1OC)-c1ccc(SC)c(=O)cc1C(NC(=O)COc1cc(C)ccc1C)CC2 (stereo not shown) [Compound 000817, N-Deacetyl-N-(2,5-dimethylphenoxyacetyl)thiocolchicine] |  | 99.8% | 0% |  |  | 100 mg/kg
7 | COc1ccc(OCC(=O)N[C@H]2CCc3cc(OC)c(OC)c(OC)c3-c3ccc(SC)c(=O)cc32)cc1 [Compound 000825, N-Deacetyl-N-(4-methoxyphenoxyacetyl)thiocolchicine] | 90.25% | 0% | 0% | 18 days |  | 50 (30) mg/kg
8 | COc1cc2c(c(OC)c1OC)-c1ccc(SC)c(=O)cc1C(NC(=O)COc1ccc(C=O)cc1)CC2 (stereo not shown) [Compound 000829, N-Deacetyl-N-(4-formylphenoxyacetyl)thiocolchicine] | 100% | 0% | 0% | 13 days | 217% | 150 (120) mg/kg
9 | COc1cc2c(c(OC)c1OC)-c1ccc(SC)c(=O)cc1C(NC(=O)COc1ccccc1[N+](=O)[O-])CC2 (stereo not shown) [Compound 000830, N-Deacetyl-N-(2-nitrophenoxyacetyl)thiocolchicine] |  | 9.01% | 0% | 8 days | 133% | 150 (120) mg/kg
10 | COc1cc2c(c(OC)c1OC)-c1ccc(SC)c(=O)cc1C(NC(=O)c1ccc([N+](=O)[O-])o1)CC2 (stereo not shown) [Compound 000906, N-Deacetyl-N-(5-nitro-2-furnancarbonyl)thiocolchicine] | 98.67% | 0% | 0% |  |  | 50 mg/kg
11 | COc1cc2c(c(OC)c1OC)-c1ccc(SC)c(=O)cc1C(NC(=O)c1cccc(NC(=O)CCl)c1)CC2 (stereo not shown) [Compound 000911, N-Deacetyl-N-(3-chloroacetaminobenzoyl)thiocolchicine] | 100% | 0% | 0% | 11 days | 183% | 30 (30) mg/kg
12 | COc1cc2c(c(OC)c1OC)-c1ccc(SC)c(=O)cc1C(NC(=O)c1cc(=O)c3ccccc3o1)CC2 (stereo not shown) [Compound 000914, N-Deacetyl-N-(chromone-2-carbonyl)thiocolchicine] |  | 3.54% | 0% |  |  | 150 (120) mg/kg
13 | N-Deacetyl-N-(4-methoxyphenoxyacetyl)thiocolchicine [Compound 000818] |  | 98.8% | 0% | 8 days |  | 
